# Measurements published in paper PMC8330742, “New benzothieno[2,3-c]pyridines as non-steroidal CYP17 inhibitors: design, synthesis, anticancer screening, apoptosis induction, and in silico ADME profile studies” (Journal of Enzyme Inhibition and Medicinal Chemistry, 2021).
# Columns and labels:
# SN12C = assay: NCI-60 SRB screen; assay type: cell-based, human; conditions: Homo sapiens, SN12C; SN 12 C; single dose 10^−5 M; read-out: Growth inhibition (%)
# SF-295 = assay: NCI-60 SRB screen; assay type: cell-based, human; conditions: Homo sapiens; SF-295; single dose 10^−5 M; read-out: Growth inhibition (%)
# HCC-2998 = assay: NCI-60 SRB screen; assay type: cell-based, human; conditions: Homo sapiens; HCC-2998; single dose 10^−5 M; read-out: Growth inhibition (%)
# SK-MEL-2 = assay: NCI-60 SRB screen; assay type: cell-based, human; conditions: Homo sapiens; SK-MEL-2; single dose 10^−5 M; read-out: Growth inhibition (%)
# ACHN = assay: NCI-60 SRB screen; assay type: cell-based; conditions: Homo sapiens, single dose 10^−5 M, read-out: Growth inhibition (%)
# A549/ATCC = assay: NCI-60 SRB screen; assay type: cell-based, human; conditions: Homo sapiens, single dose 10^−5 M, read-out: Growth inhibition (%)
# UO-31 = assay: NCI-60 SRB screen; assay type: cell-based, human; conditions: Homo sapiens; UO-31; single dose 10^−5 M; read-out: Growth inhibition (%)
# CAKI-1 = assay: NCI-60 SRB screen; assay type: cell-based, human; conditions: Homo sapiens; CAKI-1; single dose 10^−5 M; read-out: Growth inhibition (%)
# 786-0 = assay: NCI-60 SRB screen; assay type: cell-based; conditions: Homo sapiens; 786-0; single dose 10^−5 M; read-out: Growth inhibition (%)
# TK-10 = assay: NCI-60 SRB screen; assay type: cell-based, human; conditions: Homo sapiens; TK-10; single dose 10^−5 M; read-out: Growth inhibition (%)
# HOP-92 = assay: NCI-60 SRB screen; assay type: cell-based, human; conditions: Homo sapiens; HOP-92; single dose 10^−5 M; read-out: Growth inhibition (%)
# MOLT-4 = assay: NCI-60 SRB screen; assay type: cell-based; conditions: Homo sapiens; MOLT-4; single dose 10^−5 M; read-out: Growth inhibition (%)
# SW-620 = assay: NCI-60 SRB screen; assay type: cell-based; conditions: Homo sapiens; SW-620; single dose 10^−5 M; read-out: Growth inhibition (%)
# RXF 393 = assay: NCI-60 SRB screen; assay type: cell-based, human; conditions: Homo sapiens; RXF 393; single dose 10^−5 M; read-out: Growth inhibition (%)
# UACC-62 = assay: NCI-60 SRB screen; assay type: cell-based, human; conditions: Homo sapiens; UACC-62; single dose 10^−5 M; read-out: Growth inhibition (%)
# UACC-257 = assay: NCI-60 SRB screen; assay type: cell-based, human; conditions: Homo sapiens, UACC-257; UACC-275 (so in the source); single dose 10^−5 M; read-out: Growth inhibition (%)
# NCI-H226 = assay: NCI-60 SRB screen; assay type: cell-based, human; conditions: Homo sapiens; NCI-H226; single dose 10^−5 M; read-out: Growth inhibition (%)
# K-562 = assay: NCI-60 SRB screen; assay type: cell-based, human; conditions: Homo sapiens, K562; K-562; single dose 10^−5 M; read-out: Growth inhibition (%)
# SR = assay: NCI-60 SRB screen; assay type: cell-based; conditions: Homo sapiens, single dose 10^−5 M, read-out: Growth inhibition (%)
# NCI-H460 = assay: NCI-60 SRB screen; assay type: cell-based, human; conditions: Homo sapiens; NCI-H460; single dose 10^−5 M; read-out: Growth inhibition (%)
# EKVX = assay: NCI-60 SRB screen; assay type: cell-based, human; conditions: Homo sapiens, single dose 10^−5 M, read-out: Growth inhibition (%)
# M14 = assay: NCI-60 SRB screen; assay type: cell-based, human; conditions: Homo sapiens; M14; single dose 10^−5 M; read-out: Growth inhibition (%)
# HOP-62 = assay: NCI-60 SRB screen; assay type: cell-based, human; conditions: Homo sapiens; HOP-62; single dose 10^−5 M; read-out: Growth inhibition (%)
# HL-60(TB) = assay: NCI-60 SRB screen; assay type: cell-based, human; conditions: Homo sapiens; HL-60 (TB); single dose 10^−5 M; read-out: Growth inhibition (%)
# HCT-15 = assay: NCI-60 SRB screen; assay type: cell-based, human; conditions: Homo sapiens; HCT-15; single dose 10^−5 M; read-out: Growth inhibition (%)
# MDA-MB-435 = assay: NCI-60 SRB screen; assay type: cell-based; conditions: Homo sapiens, MDA-MB-435, read-out: Growth inhibition (%)
# NCI-H522 = assay: NCI-60 SRB screen; assay type: cell-based, human; conditions: Homo sapiens; NCI-H522; single dose 10^−5 M; read-out: Growth inhibition (%)
# SK-MEL-28 = assay: NCI-60 SRB screen; assay type: cell-based; conditions: Homo sapiens; SK-MEL-28; single dose 10^−5 M; read-out: Growth inhibition (%)
# SF-268 = assay: NCI-60 SRB screen; assay type: cell-based, human; conditions: Homo sapiens; SF-268; single dose 10^−5 M; read-out: Growth inhibition (%)
# [1] = system: panel of 60 cancer cell lines; assay: NCI-60 SRB screen, mean or range over the panel; assay type: cell-based, human; conditions: Homo sapiens; mean over the cell lines; single dose 10^−5 M; read-out: Mean growth inhibition (%)
# KM12 = assay: NCI-60 SRB screen; assay type: cell-based, human; conditions: Homo sapiens; KM12; single dose 10^−5 M; read-out: Growth inhibition (%)
# SK-OV-3 = assay: NCI-60 SRB screen; assay type: cell-based, human; conditions: Homo sapiens; SK-OV-3; single dose 10^−5 M; read-out: Growth inhibition (%)
# NCI/ADR-RES = assay: NCI-60 SRB screen; assay type: cell-based, human; conditions: Homo sapiens, single dose 10^−5 M, read-out: Growth inhibition (%)
# OVCAR-4 = assay: NCI-60 SRB screen; assay type: cell-based, human; conditions: Homo sapiens; OVCAR-4; single dose 10^−5 M; read-out: Growth inhibition (%)
# IGROV1 = assay: NCI-60 SRB screen; assay type: cell-based, human; conditions: Homo sapiens, IGROV-1; IGROV1; single dose 10^−5 M; read-out: Growth inhibition (%)
# OVCAR-3 = assay: NCI-60 SRB screen; assay type: cell-based, human; conditions: Homo sapiens; OVCAR-3; single dose 10^−5 M; read-out: Growth inhibition (%)
# HT-29 = assay: NCI-60 SRB screen; assay type: cell-based; conditions: Homo sapiens; HT-29; single dose 10^−5 M; read-out: Growth inhibition (%)
# HCT-116 = assay: NCI-60 SRB screen; assay type: cell-based, human; conditions: Homo sapiens; HCT-116; single dose 10^−5 M; read-out: Growth inhibition (%)
# OVCAR-8 = assay: NCI-60 SRB screen; assay type: cell-based, human; conditions: Homo sapiens; OVCAR-8; single dose 10^−5 M; read-out: Growth inhibition (%)
# NCI-H23 = assay: NCI-60 SRB screen; assay type: cell-based, human; conditions: Homo sapiens; NCI-H23; single dose 10^−5 M; read-out: Growth inhibition (%)
# LOX IMVI = assay: NCI-60 SRB screen; assay type: cell-based, human; conditions: Homo sapiens, single dose 10^−5 M, read-out: Growth inhibition (%)
# SK-MEL-5 = assay: NCI-60 SRB screen; assay type: cell-based, human; conditions: Homo sapiens; SK-MEL-5; single dose 10^−5 M; read-out: Growth inhibition (%)
# NCI-H322M = assay: NCI-60 SRB screen; assay type: cell-based, human; conditions: Homo sapiens, single dose 10^−5 M, read-out: Growth inhibition (%)
# COLO 205 = assay: NCI-60 SRB screen; assay type: cell-based, human; conditions: Homo sapiens; COLO 205; single dose 10^−5 M; read-out: Growth inhibition (%)
compound,measurement,setting,value
"COc1ccc(C=C2Sc3c(F)cccc3C2=O)c(OC)c1 [Compound 2a, 2-(2,4-Dimethoxybenzylidene)-7-fluoro[1]benzothiophen-3(2H)-one]",inhibition at 10 µM,SN12C,-0.73%
same,inhibition at 10 µM,SF-295,-4.69%
same,inhibition at 10 µM,HCC-2998,-12.8%
same,inhibition at 10 µM,SK-MEL-2,-17.9%
same,inhibition at 10 µM,ACHN,-4.06%
same,inhibition at 10 µM,A549/ATCC,-7.82%
same,inhibition at 10 µM,UO-31,25%
same,inhibition at 10 µM,CAKI-1,11.9%
same,inhibition at 10 µM,786-0,-12.2%
same,inhibition at 10 µM,TK-10,-34.9%
same,inhibition at 10 µM,HOP-92,-8.14%
same,inhibition at 10 µM,MOLT-4,4.1%
same,inhibition at 10 µM,SW-620,-4.67%
same,inhibition at 10 µM,RXF 393,-27.9%
same,inhibition at 10 µM,UACC-62,7.33%
same,inhibition at 10 µM,UACC-257,-15.2%
same,inhibition at 10 µM,NCI-H226,0.31%
same,inhibition at 10 µM,K-562,4.76%
same,inhibition at 10 µM,SR,6.3%
same,inhibition at 10 µM,NCI-H460,-6.08%
same,inhibition at 10 µM,EKVX,-5.71%
same,inhibition at 10 µM,M14,-5.61%
same,inhibition at 10 µM,HOP-62,5.99%
same,inhibition at 10 µM,HL-60(TB),11%
same,inhibition at 10 µM,HCT-15,-9.73%
same,inhibition at 10 µM,MDA-MB-435,-0.27%
same,inhibition at 10 µM,NCI-H522,6.14%
same,inhibition at 10 µM,SK-MEL-28,-7.93%
same,inhibition at 10 µM,SF-268,4.51%
same,inhibition at 10 µM,[1],-3.74%
same,inhibition at 10 µM,KM12,-5.55%
same,inhibition at 10 µM,SK-OV-3,6.36%
same,inhibition at 10 µM,NCI/ADR-RES,-3.61%
same,inhibition at 10 µM,OVCAR-4,-6.44%
same,inhibition at 10 µM,IGROV1,0.46%
same,inhibition at 10 µM,OVCAR-3,-7.34%
same,inhibition at 10 µM,HT-29,-9.18%
same,inhibition at 10 µM,HCT-116,-3.66%
same,inhibition at 10 µM,OVCAR-8,-4.32%
same,inhibition at 10 µM,NCI-H23,-4.04%
same,inhibition at 10 µM,LOX IMVI,-0.02%
same,inhibition at 10 µM,SK-MEL-5,-2.91%
same,inhibition at 10 µM,NCI-H322M,0.25%
same,inhibition at 10 µM,COLO 205,-16%
